This passage reports IC50 results from patent publication EP4741390A1, “BIARYL RING COMPOUND, INTERMEDIATE THEREOF, PREPARATION METHOD THEREFOR AND USE THEREOF” (Hangzhou Synrx Therapeutics Biomedical Technology Co., Ltd., priority 2023, dated 2025).

Molecules are shown by their SMILES. Where two headings read alike, the source gives them in different places.

For assay [1], the target named is helicase domain of the Pol θ protein (Homo sapiens, UniProt O75417). It is filed as biochemical.
The subject of the next assay is DLD1 BRCA2-/- cells. Kind of assay: Cell viability assay (CTG assay), DLD1 BRCA2-/- cells. Type of assay: cell-based. The settings on record: Homo sapiens, DLD-1, 240 h; CellTiter Glo, read on Day 10, initial concentration 30 µM. Here is the method:
(§1) 2. Cell Viability Assay of Pol θ Inhibitor
(§2) The cell viability assay, i.e., the commonly used CTG assay, was conducted for the efficacy of the inhibitor in vitro using the CellTiter Glo reagent (Promega, G7573).
(In ATP-based viability assays light output follows the ATP content of the culture.)

A further assay has as its system DLD1 wild type. The assay is described as follows: Cell viability assay (CTG assay), DLD1 wild type cells. As to conditions: Homo sapiens, DLD-1, 240 h; CellTiter Glo, read on Day 10, initial concentration 30 µM. It is filed as cell-based. Here is the method:
as §1, §2

The mark [2] stands for this setting: ATPase activity, ADP-Glo, ssDNA substrate, 60 min at room temperature, initial concentration 10 µM, read-out: Biochemical experiment IC50.

Chain of helicase domain of the Pol θ protein (O75417 102-554 limits assumed): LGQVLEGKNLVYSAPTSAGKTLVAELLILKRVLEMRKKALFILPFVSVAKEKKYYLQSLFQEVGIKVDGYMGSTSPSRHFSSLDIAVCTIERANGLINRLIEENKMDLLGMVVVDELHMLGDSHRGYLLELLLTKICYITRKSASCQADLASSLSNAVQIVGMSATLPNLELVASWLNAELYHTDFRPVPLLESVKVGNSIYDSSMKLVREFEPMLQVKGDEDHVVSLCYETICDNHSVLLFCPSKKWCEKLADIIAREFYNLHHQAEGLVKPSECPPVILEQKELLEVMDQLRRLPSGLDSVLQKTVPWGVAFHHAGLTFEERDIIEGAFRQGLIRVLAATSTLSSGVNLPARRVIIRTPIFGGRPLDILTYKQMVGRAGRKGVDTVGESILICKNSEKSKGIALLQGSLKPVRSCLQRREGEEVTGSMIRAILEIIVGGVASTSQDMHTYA

One may read the IC50 as the point on the concentration scale where inhibition reaches its midpoint. For the molecule `COc1cnc(C(F)F)cc1-c1cc(-n2cccc(F)c2=O)ncc1C(=O)Nc1nc(-c2c(C)noc2C)ns1` [Example 22, 2"-(difluoromethyl)-N-(3-(3,5-dimethylisoxazol-4-yl)-1,2,4-thiadiazol-5-yl)-3-fluoro-5"-methoxy-2-oxo-2H-[1,2':4',4"-terpyridine]-5'-carboxamide], the figures for the IC50 (in assay [1] (setting [2]); in the assay on DLD1 BRCA2-/- cells; in the assay with DLD1 wild type) were 0.00341 µM, 5.01 nM and greater than 5000 nM, respectively.

With `COc1cnc(C(F)F)cc1-c1cc(-n2cccc(F)c2=O)ncc1C(=O)Nc1nc(-c2ncccn2)ns1` [Example 18, 2"-(difluoromethyl)-3-fluoro-5"-methoxy-2-oxo-N-(3-(pyrimidin-2-yl)-1,2,4-thiadiazol-5-yl)-2H-[1,2':4',4"-terpyridine]-5'-carboxamide], the IC50 was 0.0251 µM in assay [1] (setting [2]), 5.62 nM in the assay on DLD1 BRCA2-/- cells and 4300 nM with DLD1 wild type.

In the case of `COc1cnc(C(F)F)cc1-c1cc(-n2cccc(F)c2=O)ncc1C(=O)Nc1nc(C)ns1` [Example 11, 2"-(difluoromethyl)-3-fluoro-5"-methoxy-N-(3-methyl-1,2,4-thiadiazol-5-yl)-2-oxo-2H-[1,2':4',4"-terpyridine]-5'-carboxamide], the IC50 in assay [1] (setting [2]) is 0.014 µM; with DLD1 BRCA2-/- cells it was 171 nM; in the assay with DLD1 wild type it was greater than 50000 nM.

Take `COc1cnc(C(F)F)cc1-c1cc(-n2cccc(F)c2=O)ncc1C(=O)Nc1nc(C2CC2)cs1` [Example 3, N-(4-cyclopropylthiazol-2-yl)-2"-(difluoromethyl)-3-fluoro-5"-methoxy-2-oxo-2H-[1,2':4',4"-terpyridine]-5'-carboxamide]: the IC50 in assay [1] (setting [2]) was 0.0103 µM; in the assay with DLD1 BRCA2-/- cells, 79.4 nM; with DLD1 wild type, greater than 50000 nM.

In the case of `COc1cnc(C(F)F)cc1-c1cc(-n2cccc(F)c2=O)ncc1C(=O)Nc1nc(-c2ccncc2)cs1` [Example 2, 2"-(difluoromethyl)-3-fluoro-5"-methoxy-2-oxo-N-(4-(pyridin-4-yl)thiazol-2-yl)-2H-[1,2':4',4"-terpyridine]-5'-carboxamide], the results for the IC50 (in assay [1] (setting [2]); in the assay on DLD1 BRCA2-/- cells; in the assay with DLD1 wild type) were 0.00558 µM, 41.2 nM and greater than 50000 nM, respectively.

With `COc1cnc(C(F)F)cc1-c1cc(-n2cccc(F)c2=O)ncc1C(=O)Nc1nc(-c2cnccn2)ns1` [Example 19, 2"-(difluoromethyl)-3-fluoro-5"-methoxy-2-oxo-N-(3-(pyrazin-2-yl)-1,2,4-thiadiazol-5-yl)-2H-[1,2':4',4"-terpyridine]-5'-carboxamide], the 50% inhibitory concentration (IC50) in assay [1] (setting [2]) was 0.0321 µM; in the assay with DLD1 BRCA2-/- cells, 56.2 nM; in the assay on DLD1 wild type, greater than 5000 nM.

For `COc1cnc(C(F)F)cc1-c1cc(-n2cccc(F)c2=O)ncc1C(=O)Nc1nc(C2CC2)ns1` [Example 1, N-(3-cyclopropyl-1,2,4-thiadiazol-5-yl)-2"-difluoromethyl-3-fluoro-5"-methoxy-2-oxo-2H-[1,2':4',4"-tripyridin]-5'-carboxamide], the IC50 is 0.00692 µM in assay [1], 48.2 nM with DLD1 BRCA2-/- cells and greater than 50000 nM in the assay with DLD1 wild type.

On to `COc1cnc(C(F)F)cc1-c1cc(-n2cccc(F)c2=O)ncc1C(=O)Nc1nc(N2CC3CC3C2)ns1` (stereo not drawn) [Example 28, N-(3-(3-azabicyclo[3,1,0]hex-3-yl)-1,2,4-thiadiazol-5-yl)-2"-(difluoromethyl)-3-fluoro-5"-methoxy-2-oxo-2H-[1,2':4',4"-terpyridin]-5'-carboxamide], for which the IC50 was 0.011 µM in assay [1] (setting [2]), 24.2 nM in the assay on DLD1 BRCA2-/- cells and greater than 5000 nM in the assay on DLD1 wild type.

Take `COc1cnc(C(F)F)cc1-c1cc(-n2cccc(F)c2=O)ncc1C(=O)Nc1nc(-c2ccc(Cl)cc2)ns1` [Example 23]: the half-inhibitory concentration (IC50) in assay [1] was 0.17 µM; in the assay on DLD1 BRCA2-/- cells, 185 nM; in the assay on DLD1 wild type it was greater than 50000 nM.
